Measured values taken from ChEMBL document CHEMBL1158988, “Cytotoxic norditerpene lactones from Ileostylus micranthus” (J Nat Prod, 1991).
In brackets after ≈: the same amount, converted by molar mass.

Test system: P388
Experiment: Cytotoxicity against mouse P388 cells
Assay type: functional, cell-based

`CC(C)[C@H]1OC(=O)C=C2[C@@]13O[C@@H]3[C@H]1OC(=O)[C@@]3(C)C[C@H](O)C[C@@]2(C)[C@@H]13` showed an IC50 of 0.06 µg/mL (≈ 0.172 µM).
For `CC(C)[C@H]1OC(=O)C=C2C1=C[C@H]1OC(=O)[C@@]3(C)C[C@H](O)C[C@@]2(C)[C@@H]13`, the IC50 was 0.06 µg/mL (≈ 0.181 µM).
`CC(C)c1oc(=O)cc2c1[C@@H](O)[C@H]1OC(=O)[C@@]3(C)C[C@H]4O[C@H]4[C@@]2(C)[C@@H]13` was tested, and the IC50 was 0.65 µg/mL (≈ 1.88 µM).
`CC(C)c1oc(=O)cc2c1[C@@H](O)[C@H]1OC(=O)[C@@]3(C)[C@@H](O)[C@H]4O[C@H]4[C@@]2(C)[C@@H]13` [NAGILACTONE C] gave an IC50 of 0.33 µg/mL (≈ 0.911 µM).
Compound `C=C[C@H]1OC(=O)C=C2C1=C[C@H]1OC(=O)[C@]3(C)[C@H]1[C@]2(C)[C@H]1O[C@H]1[C@@H]3O` [PODOLACTONE E] has an IC50 of under 0.01 µg/mL.
